Data taken from patent US10202388B2, “Fused-ring compounds, pharmaceutical composition and uses thereof” (SHANGHAI DE NOVO PHARMATECH CO., LTD., priority 2015, dated 2019).

Target: HeLa cell based IDO1 (Homo sapiens (Human), UniProt P14902)
Assay: Three-point IDO1 cellular assay (HeLa, 10, 100 and 1000 nM)
Details: HeLa cells, 100 ng/mL IFN-γ, 18 hours
Protocol: To perform the 3-point HeLa cell based IDO1 assay, HeLa cells were seeded at 25,000 cells per well into 96-well microplate in 100 μL of growth medium. Cells were incubated at 37° C. and 5% CO2 overnight. The next day 100 μL per well of diluted inhibitor in growth medium at 10, 100 and 1000 nM, respectively, was added at a final concentration of 100 ng/ML human IFN-γ. Cells were incubated at 37° C. in a CO2 incubator for 18 hours. […] The plate was incubated at 50° C. for 30 min to hydrolyze N-formylkynurenine produced by IDO1 to kynurenine. The plate was then centrifuged at 2500 rpm for 10 min to remove sediments. 100 μl of supernatant per well was transferred to another 96-well plate and mixed with 100 μL of 2% (w/v) 4-(Dimethylamino) benzaldehyde in acetic acid. The plate was incubated at room temperature for 10 minutes, the yellow color derived from kynurenine was recorded by measuring absorbance at 480 nm using a microplate reader (TECAN Infinite M1000 Pro). Cell based assays were performed in triplicate at each concentration. The absorbance data were analyzed using the computer software, Graphpad Prism. In the absence of the compound and presence of 100 ng/ML IFN-γ, the absorbance (At) in each data set was defined as 100%. The absorbance of medium blank (Ab) in each data set was defined as 0%. The percent absorbance in the presence of each compound was calculated according to the following equation: % Absorbance=(A−Ab)/(At−Ab), where A=the absorbance in the presence of the compound and IFN-γ, Ab=the absorbance of medium blank, and At=the absorbance in the absence of the compounds and presence of IFN-γ. The values of % absorbance versus the compound concentrations were then determined.

HeLa cell based IDO1, sequence (P14902 whole entry): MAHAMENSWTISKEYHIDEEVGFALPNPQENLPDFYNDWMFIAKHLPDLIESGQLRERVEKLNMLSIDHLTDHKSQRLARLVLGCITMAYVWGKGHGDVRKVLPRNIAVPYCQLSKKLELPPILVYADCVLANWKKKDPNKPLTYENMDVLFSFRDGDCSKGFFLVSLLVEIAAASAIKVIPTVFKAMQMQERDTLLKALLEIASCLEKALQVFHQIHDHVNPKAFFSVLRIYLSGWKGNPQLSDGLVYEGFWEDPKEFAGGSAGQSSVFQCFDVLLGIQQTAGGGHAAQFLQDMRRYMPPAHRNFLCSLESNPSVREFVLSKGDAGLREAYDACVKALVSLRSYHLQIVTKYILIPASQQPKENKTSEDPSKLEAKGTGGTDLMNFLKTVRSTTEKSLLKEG

| Structure (SMILES) | inhibition at 0.1 µM (at 100 nM) | inhibition at 1 µM (at 1000 nM) | also measured |
| --- | --- | --- | --- |
| CS(=O)(=O)NC1C2CC3CC1CC(C(O)CC1c4c(F)cccc4-c4cncn41)(C3)C2 (centres unmarked) [Compound 46A] | > 50% |  |  |
| NS(=O)(=O)NC1C2CC3CC1CC(C(O)CC1c4c(F)cccc4-c4cncn41)(C3)C2 (centres unmarked) [Compound 48A] |  | > 50% |  |
| O=C(Cc1ccncc1)NC1C2CC3CC1CC(C(O)CC1c4ccccc4-c4cncn41)(C3)C2 (centres unmarked) [Compound 50A] |  | > 50% |  |
| O=C(CO)NC1C2CC3CC1CC(C(O)CC1c4ccccc4-c4cncn41)(C3)C2 (centres unmarked) [Compound 51A] |  | > 50% |  |
| O=C(Cc1ccccc1)NC1C2CC3CC1CC(C(O)CC1c4ccccc4-c4cncn41)(C3)C2 (centres unmarked) [Compound 53B] | > 50% |  |  |
| O=C(NC1CCOCC1)NC1C2CC3CC1CC(C(O)CC1c4c(F)cccc4-c4cncn41)(C3)C2 (centres unmarked) [Compound 54] |  |  | inhibition values of % (at 1000 nM): greater than 50% |
| O=C(Nc1cccnc1)NC1C2CC3CC1CC(C(O)CC1c4c(F)cccc4-c4cncn41)(C3)C2 (centres unmarked) [Compound 56A] |  | > 50% |  |
| O=C1C2CC3CC1CC(C(O)CC1c4c(F)cccc4-c4cncn41)(C3)C2 (centres unmarked) [Compound 63] |  |  | inhibition values of % (at 1000 nM): greater than 50% |
| O=S(=O)(CCc1ccccc1)NC1C2CC3CC1CC(C(O)CC1c4c(F)cccc4-c4cncn41)(C3)C2 (centres unmarked) [Compound 64] | > 50% |  |  |
| O=S(=O)(CC1CCCCC1)NC1C2CC3CC1CC(C(O)CC1c4c(F)cccc4-c4cncn41)(C3)C2 (centres unmarked) [Compound 65] |  |  | inhibition at 0.01 µM (at 10 nM): > 50% |
| O=S(=O)(CC1CCC1)NC1C2CC3CC1CC(C(O)CC1c4c(F)cccc4-c4cncn41)(C3)C2 (centres unmarked) [Compound 67A] |  | > 50% |  |
| O=S(=O)(CC1CC1)NC1C2CC3CC1CC(C(O)CC1c4c(F)cccc4-c4cncn41)(C3)C2 (centres unmarked) [Compound 68] | > 50% |  |  |
| Cc1ccc(CS(=O)(=O)NC2C3CC4CC2CC(C(O)CC2c5c(F)cccc5-c5cncn52)(C4)C3)cc1 (centres unmarked) [Compound 70A] |  |  | inhibition at 0.01 µM (at 10 nM): > 50% |
| O=S(=O)(Cc1ccccc1)NC1C2CC3CC1CC(C(O)CC1c4ccccc4-c4cncn41)(C3)C2 (centres unmarked) [Compound 75A] |  |  | inhibition at 0.01 µM (at 10 nM): > 50% |
| O=S(=O)(Cc1ccccc1)NC1C2CC3CC1CC(C(O)CC1c4ccccc4-c4cncn41)(C3)C2 (centres unmarked) [Compound 75B] |  | > 50% |  |
| N#CC1C2CC3CC1CC(C(O)CC1c4c(F)cccc4-c4cncn41)(C3)C2 (centres unmarked) [Compound 76] |  |  | inhibition values of % (at 1000 nM): greater than 50% |
| ON=C1C2CC3CC1CC(C(O)CC1c4c(F)cccc4-c4cncn41)(C3)C2 (centres unmarked) [Compound 80] |  |  | inhibition values of % (at 1000 nM): greater than 50% |
| O=S(=O)(CC1CCCC1)NC1C2CC3CC1CC(C(O)CC1c4c(F)cccc4-c4cncn41)(C3)C2 (centres unmarked) [Compound 82A] |  |  | inhibition at 0.01 µM (at 10 nM): > 50% |
| O=S(=O)(CC1CCOCC1)NC1C2CC3CC1CC(C(O)CC1c4c(F)cccc4-c4cncn41)(C3)C2 (centres unmarked) [Compound 84A] |  |  | inhibition values of % (at 100 nM): greater than 50% |
| O=S(=O)(NC1C2CC3CC1CC(C(O)CC1c4c(F)cccc4-c4cncn41)(C3)C2)C1CCCC1 (centres unmarked) [Compound 85A] |  |  | inhibition values of % (at 10 nM): greater than 50% |

| Structure (SMILES) | inhibition at 0.1 µM (at 100 nM) | inhibition at 1 µM (at 1000 nM) | also measured |
| --- | --- | --- | --- |
| CN(C1C2CC3CC1CC(C(O)CC1c4c(F)cccc4-c4cncn41)(C3)C2)S(=O)(=O)Cc1ccccc1 (centres unmarked) [Compound 89] |  |  | inhibition values of % (at 100 nM): greater than 50% |
| O=C(Nc1ccc(F)cc1)NC1C2CC3CC1CC(C(O)CC1c4c(F)cccc4-c4cncn41)(C3)C2 (centres unmarked) [Compound 93B] | > 50% |  |  |
| O=C(Nc1ccc(Cl)cc1)NC1C2CC3CC1CC(C(O)CC1c4c(F)cccc4-c4cncn41)(C3)C2 (centres unmarked) [Compound 94A] | > 50% |  |  |
| O=C(Nc1ccc(Br)cc1)NC1C2CC3CC1CC(C(O)CC1c4c(F)cccc4-c4cncn41)(C3)C2 (centres unmarked) [Compound 95A] | > 50% |  |  |
| O=C(NC1CCCCC1)NC1C2CC3CC1CC(C(O)CC1c4c(F)cccc4-c4cncn41)(C3)C2 (centres unmarked) [Compound 96A] | > 50% |  |  |
| CNC(=O)NC1C2CC3CC1CC(C(O)CC1c4c(F)cccc4-c4cncn41)(C3)C2 (centres unmarked) [Compound 98A] |  |  | inhibition values of % (at 1000 nM): greater than 50% |
| CC(=O)c1ccc(NC(=O)NC2C3CC4CC2CC(C(O)CC2c5ccccc5-c5cncn52)(C4)C3)cc1 (centres unmarked) [Compound 104] |  | > 50% |  |
| O=C(Nc1ccc(F)cc1F)NC1C2CC3CC1CC(C(O)CC1c4c(F)cccc4-c4cncn41)(C3)C2 (centres unmarked) [Compound 105A] | > 50% |  |  |
| O=C(NC1CC1)NC1C2CC3CC1CC(C(O)CC1c4c(F)cccc4-c4cncn41)(C3)C2 (centres unmarked) [Compound 106A] |  | > 50% |  |
| O=C(NCC1CC1)NC1C2CC3CC1CC(C(O)CC1c4c(F)cccc4-c4cncn41)(C3)C2 (centres unmarked) [Compound 107A] | > 50% |  |  |
| O=C(Nc1cccc2ccccc12)NC1C2CC3CC1CC(C(O)CC1c4c(F)cccc4-c4cncn41)(C3)C2 (centres unmarked) [Compound 109A] |  | > 50% |  |
| O=C(Nc1ccc2ccccc2c1)NC1C2CC3CC1CC(C(O)CC1c4c(F)cccc4-c4cncn41)(C3)C2 (centres unmarked) [Compound 110A] | > 50% |  |  |
| O=C(NCC1CCC1)NC1C2CC3CC1CC(C(O)CC1c4c(F)cccc4-c4cncn41)(C3)C2 (centres unmarked) [Compound 111A] | > 50% |  |  |
| O=C(NCC1CCOC1)NC1C2CC3CC1CC(C(O)CC1c4c(F)cccc4-c4cncn41)(C3)C2 (centres unmarked) [Compound 112A] |  | > 50% |  |
| Cn1cc(NC(=O)NC2C3CC4CC2CC(C(O)CC2c5c(F)cccc5-c5cncn52)(C4)C3)cn1 (centres unmarked) [Compound 114A] |  | > 50% |  |
| O=C1N(c2ccc(F)cc2)CCN1C1C2CC3CC1CC(C(O)CC1c4c(F)cccc4-c4cncn41)(C3)C2 (centres unmarked) [Compound 122] |  |  | inhibition values of % (at 100 nM): greater than 50% |
| OC(CC1c2c(F)cccc2-c2cncn21)C12CC3CC(C1)C(Nc1nc4ccccc4s1)C(C3)C2 (centres unmarked) [Compound 126] |  |  | inhibition at 0.01 µM (at 10 nM): > 50% |
| OC(CC1c2c(F)cccc2-c2cncn21)C12CC3CC(C1)C(Nc1nc4cccnc4o1)C(C3)C2 (centres unmarked) [Compound 127] |  |  | inhibition values of % (at 100 nM): greater than 50% |
| OC(CC1c2c(F)cccc2-c2cncn21)C12CC3CC(C1)C(OCc1ccccc1)C(C3)C2 (centres unmarked) [Compound 133] |  | > 50% |  |
| OC(CC1c2c(F)cccc2-c2cncn21)C12CC3CC(C1)C(OCCN1CCOCC1)C(C3)C2 (centres unmarked) [Compound 135A] | > 50% |  |  |

| Structure (SMILES) | inhibition at 0.1 µM (at 100 nM) | inhibition at 1 µM (at 1000 nM) | also measured |
| --- | --- | --- | --- |
| OC(CC1c2c(F)cccc2-c2cncn21)C12CC3CC(C1)C(OCCN1CCOCC1)C(C3)C2 (centres unmarked) [Compound 135B] |  | > 50% |  |
| OC(COC1C2CC3CC1CC(C(O)CC1c4c(F)cccc4-c4cncn41)(C3)C2)c1ccccc1 (centres unmarked) [Compound 136] |  |  | inhibition values of % (at 100 nM): greater than 50% |
| OC(COC1C2CC3CC1CC(C(O)CC1c4c(F)cccc4-c4cncn41)(C3)C2)C1CCCCC1 (centres unmarked) [Compound 137] |  | > 50% |  |
| OCCC1(O)C2CC3CC1CC(C(O)CC1c4c(F)cccc4-c4cncn41)(C3)C2 (centres unmarked) [Compound 142] |  |  | inhibition values of % (at 1000 nM): greater than 50% |
| N#Cc1ccc(C2(O)C3CC4CC2CC(C(O)CC2c5c(F)cccc5-c5cncn52)(C4)C3)cc1 (centres unmarked) [Compound 145] |  | > 50% |  |
| OC(CC1c2c(F)cccc2-c2cncn21)C12CC3CC(C1)C(O)(c1cccnc1)C(C3)C2 (centres unmarked) [Compound 146] |  | > 50% |  |
| O=S(=O)(Nc1ccccc1)NC1C2CC3CC1CC(C(O)CC1c4ccccc4-c4cncn41)(C3)C2 (centres unmarked) [Compound 151] |  |  | inhibition values of % (at 100 nM): greater than 50% |
| O=S(=O)(Nc1ccc(F)cc1)NC1C2CC3CC1CC(C(O)CC1c4ccccc4-c4cncn41)(C3)C2 (centres unmarked) [Compound 152] |  | > 50% |  |
| Cc1ccc(NS(=O)(=O)NC2C3CC4CC2CC(C(O)CC2c5ccccc5-c5cncn52)(C4)C3)cc1 (centres unmarked) [Compound 153] | > 50% |  |  |
| O=C(Nc1ccc(F)cc1)NC12CC3CC(C1)C(C(O)CC1c4ccccc4-c4cncn41)C(C3)C2 (centres unmarked) [Compound 163A] | > 50% |  |  |
| O=C(Nc1ccc(F)cc1)NC12CC3CC(C1)C(C(O)CC1c4ccccc4-c4cncn41)C(C3)C2 (centres unmarked) [Compound 163B] |  | > 50% |  |
| Cc1ccc(NC(=O)NC23CC4CC(C2)C(C(O)CC2c5ccccc5-c5cncn52)C(C4)C3)cc1 (centres unmarked) [Compound 164A] | > 50% |  |  |
| Cc1ccc(NC(=O)NC23CC4CC(C2)C(C(O)CC2c5ccccc5-c5cncn52)C(C4)C3)cc1 (centres unmarked) [Compound 164B] |  | > 50% |  |
| O=S(=O)(NC12CC3CC(C1)C(C(O)CC1c4ccccc4-c4cncn41)C(C3)C2)c1ccc(C(F)(F)F)cc1 (centres unmarked) [Compound 166B] | > 50% |  |  |
| O=S(=O)(NC12CC3CC(C1)C(C(O)CC1c4ccccc4-c4cncn41)C(C3)C2)C1CC1 (centres unmarked) [Compound 169A] | > 50% |  |  |
| O=S(=O)(NC12CC3CC(C1)C(C(O)CC1c4ccccc4-c4cncn41)C(C3)C2)C1CC1 (centres unmarked) [Compound 169B] |  | > 50% |  |
| O=S(=O)(CC1CCCCC1)NC12CC3CC(C1)C(C(O)CC1c4ccccc4-c4cncn41)C(C3)C2 (centres unmarked) [Compound 170A-A] |  | > 50% |  |
| N#Cc1ccc(NC(=O)NC23CC4CC(C2)C(C(O)CC2c5c(F)cccc5-c5cncn52)C(C4)C3)cc1 (centres unmarked) [Compound 191A] |  | > 50% |  |
| O=C(CC1CCCCC1)NC12CC3CC(C1)C(C(O)CC1c4c(F)cccc4-c4cncn41)C(C3)C2 (centres unmarked) [Compound 192A] | > 50% |  |  |
